# Measurements published in PMC7075649 (Journal of Medicinal Chemistry, 2019).
# “Also recorded” adds a separate entry of the source.
# Columns and labels:
# AK^+ and AK^– cells = conditions: cited from earlier work
# CHIKV = format: cell-based, chikungunya virus
# Vero cells = conditions: African green monkey
# [1] = target: recombinant human SAH hydrolase (Homo sapiens, UniProt P23526); format: biochemical
# +RNA viruses = format: cell-based
# ZIKV = test: microbe, parasite or virus in culture; format: cell-based; conditions: Zika virus, read-out: ZIKV EC50
# Sequence of recombinant human SAH hydrolase (P23526 whole entry): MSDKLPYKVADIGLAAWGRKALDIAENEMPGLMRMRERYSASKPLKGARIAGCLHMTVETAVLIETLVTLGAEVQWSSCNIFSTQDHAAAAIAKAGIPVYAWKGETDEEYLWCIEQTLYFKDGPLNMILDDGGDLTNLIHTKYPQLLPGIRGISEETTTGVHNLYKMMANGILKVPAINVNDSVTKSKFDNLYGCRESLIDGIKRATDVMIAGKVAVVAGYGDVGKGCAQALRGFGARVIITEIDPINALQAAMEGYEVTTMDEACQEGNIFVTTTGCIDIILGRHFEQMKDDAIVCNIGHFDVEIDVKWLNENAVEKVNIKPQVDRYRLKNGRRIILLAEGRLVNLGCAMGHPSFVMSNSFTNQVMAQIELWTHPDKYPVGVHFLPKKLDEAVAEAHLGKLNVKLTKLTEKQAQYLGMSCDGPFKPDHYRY
compound,measurement,setting,value
"Nc1ncnc2c1ncn2[C@@H]1C[C@H](CO)[C@@H](O)[C@H]1O [Compound 1, (−)-Aristeromycin]",toxicity in AK^+ and AK^– cells,AK^+ and AK^– cells,toxic at low concentrations
"Nc1ncnc2c1ncn2[C@H]1[C@H](O)[C@H](O)[C@@H](CO)C1(F)F [Compound 2c, (1R,2S,3S,5R)-3-(6-Amino-9H-purin-9-yl)-4,4-difluoro-5-(hydroxymethyl)cyclopentane-1,2-diol]",reduction of infectious CHIKV titers,CHIKV,more than 2 log
same,reduction in cytotoxicity versus 2a,Vero cells,> 5 fold
"CNc1ncnc2c1ncn2[C@H]1[C@H](O)[C@H](O)[C@@H](CO)[C@H]1F [Compound 2d, (1S,2R,3R,4R,5S)-4-Fluoro-3-(hydroxymethyl)-5-(6-(methylamino)-9H-purin-9-yl)cyclopentane-1,2-diol]","SAH hydrolase inhibitory activity, fold decrease versus 2a",[1],11.9 fold
same,antiviral activity against +RNA viruses (in words),+RNA viruses,did not show significant antiviral activities
"CNc1ncnc2c1ncn2[C@H]1[C@H](O)[C@H](O)[C@@H](CO)C1(F)F [Compound 2e, (1S,2R,3R,5S)-4,4-Difluoro-3-(hydroxymethyl)-5-(6-(methylamino)-9H-purin-9-yl)cyclopentane-1,2-diol]",antiviral activity against +RNA viruses (in words),+RNA viruses,did not show significant antiviral activities
"O=c1ccn([C@H]2[C@H](O)[C@H](O)[C@@H](CO)[C@H]2F)c(=O)[nH]1 [Compound 2f, 1-((1S,2R,3R,4R,5S)-2-Fluoro-4,5-dihydroxy-3-(hydroxymethyl)cyclopentyl)pyrimidine-2,4(1H,3H)-dione]",EC50,ZIKV,> 100 µM
"O=c1ccn([C@H]2[C@H](O)[C@H](O)[C@@H](CO)[C@@H]2F)c(=O)[nH]1 [Compound 2g, 1-((1S,2S,3R,4R,5S)-2-Fluoro-4,5-dihydroxy-3-(hydroxymethyl)cyclopentyl)pyrimidine-2,4(1H,3H)-dione]",EC50,ZIKV,> 100 µM
"CC(C)OC(=O)[C@H](C)N[P@](=O)(OC[C@@H]1[C@@H](O)[C@@H](O)[C@H](n2cnc3c(N)ncnc32)C1(F)F)Oc1ccccc1 [Compound 3a, Iso-propyl ((S)-(((1R,3S,4S,5R)-3-(6-Amino-9H-purin-9-yl)-2,2-difluoro-4,5-dihydroxycyclopentyl)methoxy)(phenoxy)phosphoryl)-L-alaninate]",antiviral activity against +RNA viruses (in words),+RNA viruses,potent broad-spectrum antiviral activity; also recorded: exhibited significant broad-spectrum antiviral activities
